The record followed here is ChEMBL document CHEMBL6096636 (Bioorg Med Chem, 2024).

Data set [1] has as its system Plasmodium falciparum. The experiment in a line: microbe, parasite or virus in culture. The conditions noted are these: 3D7, 72 h.
Description: Antimalarial activity against erythrocytic stage of Plasmodium falciparum 3D7 assessed as inhibition of growth incubated for 72 hrs by SYBR green I based assay
For data set [2], the system named is Plasmodium falciparum. The experiment in a line: Antimalarial activity against sulfadoxine-pyrimethamine and mefloquine resistant Plasmodium falciparum clinical isolate CP286 assessed as inhibition of growth incubated for 72 hrs by SYBR green I based assay. In kind it is functional, organism-based.
Data set [3] deals with Plasmodium falciparum. The experiment in a line: microbe, parasite or virus in culture. The conditions noted are these: Dd2, 72 h.
Description: Antimalarial activity against erythrocytic stage of chloroquine-resistant Plasmodium falciparum Dd2 assessed as inhibition of growth incubated for 72 hrs by SYBR green I based assay
Data set [4] is described as follows: Cytotoxicity against human HepG2 cells assessed as inhibition of cell growth incubated for 72 hrs by CCK8 assay. In kind it is toxicity, cell-based. Background: Formazan colour is commonly taken as a measure of viable cells.
Data set [5] is described as follows: Cytotoxicity against HEK293T cells assessed as inhibition of cell growth incubated for 72 hrs by CCK8 assay. The format is toxicity, cell-based, HEK-293T. The conditions noted are these: human.
Data set [6] can be described thus: Selectivity index, ratio of IC50 for human HepG2 cells to IC50 for erythrocytic stage of Plasmodium falciparum 3D7. In kind it is toxicity, cell-based. The following applies: read-out: Ratio IC50.
Data set [7] can be described thus: Selectivity index, ratio of IC50 for HEK293T cells to IC50 for erythrocytic stage of Plasmodium falciparum 3D7. In kind it is toxicity, cell-based. The following applies: human, read-out: Ratio IC50.

Broadly, the IC50 is the concentration that inhibits the measured activity by half. Turning to `CCc1nc(N)nc(N)c1-c1ccc(Cl)cc1` [PYRIMETHAMINE], the IC50 in the data set with Plasmodium falciparum [1] is 24.8 nM; in the data set on Plasmodium falciparum [2] it was more than 50000 nM.

Regarding `O=C(NO)c1cnc(N[C@H]2CC[C@@H](NCc3ccsc3)CC2)nc1`, the IC50 stood at 71.2 nM with Plasmodium falciparum [3] and 132 nM in the data set on Plasmodium falciparum [1]. For the same compound, the IC50 at 72 h in data set [4] and in data set [5] was more than 10000 nM in each case. In addition, the selectivity ratio in data set [6] and in data set [7] was more than 76 each time.

For the compound `O=C(NO)c1cnc(N[C@H]2CC[C@@H](NCC3CCCCC3)CC2)nc1`, the IC50 in the data set on Plasmodium falciparum [3] came out at 53.4 nM; with Plasmodium falciparum [1] it was 87.6 nM. The IC50 at 72 h in data set [4] stood at 5840 nM; in data set [5], 3630 nM. The selectivity ratio in data set [6] was 67; in data set [7], 41.

As for `Cn1cc(CN[C@H]2CC[C@@H](Nc3ncc(C(=O)NO)cn3)CC2)c2ncccc21`, the values for the IC50 with Plasmodium falciparum [3] and in the data set on Plasmodium falciparum [1] were 38.3 nM and 46.7 nM, respectively. For the same compound, the IC50 at 72 h in data set [4] is more than 10000 nM; in data set [5], 1250 nM. Further, the selectivity ratio in data set [6] is more than 214; in data set [7], 27.

For the compound `Cn1cc(CN[C@H]2CC[C@@H](Nc3ncc(C(=O)NO)cn3)CC2)c2ccc(Cl)cc21`, the half-inhibitory concentration (IC50) was 18 nM in the data set on Plasmodium falciparum [3] and 17.1 nM in the data set with Plasmodium falciparum [1]. The IC50 at 72 h in data set [4] came to 2500 nM; in data set [5] it was 3650 nM. Moreover, the selectivity ratio amounted to 146 in data set [6] and 213 in data set [7].
